Values belong to the compound of their own block, whether it stands above or below them.
What was measured:
[1] = molecular target: T1, serine racemase (Rattus norvegicus, UniProt Q76EQ0); experiment: Absorption spectra of purified serine racemase; details: 70 μg/ml enzyme preincubated 10 minutes with 1 mM AOAA (FIG. 5)
T1 construct: the rat brain enzyme we have purified; from tissue; host or cells: rat brain (10–14 day old Sprague-Dawley rats)
T1 sequence (Q76EQ0 1-333): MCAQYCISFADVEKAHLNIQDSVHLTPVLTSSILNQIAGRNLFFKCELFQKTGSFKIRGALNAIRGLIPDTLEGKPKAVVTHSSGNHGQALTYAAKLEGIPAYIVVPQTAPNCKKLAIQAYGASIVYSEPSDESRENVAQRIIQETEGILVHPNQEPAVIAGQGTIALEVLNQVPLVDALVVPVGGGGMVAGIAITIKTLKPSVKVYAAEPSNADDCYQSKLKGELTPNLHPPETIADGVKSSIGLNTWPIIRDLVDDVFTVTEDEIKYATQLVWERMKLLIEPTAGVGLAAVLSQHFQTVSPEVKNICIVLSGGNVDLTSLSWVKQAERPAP
Method: FIG. 5. Absorption spectra of purified serine racemase. Purified enzyme (70 μg/ml) was preincubated for 10 minutes in medium containing 10 mM KPi (pH 7.2), 2 mM DTT, 1 mM EDTA, 10 μM PLP, either in the absence (Control) or in the presence of 1 mM aminooxyacetic acid (AOAA). The distinct peaks of absorbance at 420 and 340 nm were not observed in the presence of buffer alone or when bovine serum albumin was used instead of serine racemase.
For most applications the purified protein was further concentrated using centriplus 30. Protein concentration was determined with Coomassie plus protein assay reagent (Pierce). Enzyme-bound PLP was determined at room temperature by recording the absorbance of the purified protein in the range of 500 to 280 nm using a Lambda Bio spectrophotometer (Perkin Elmer).
Examination of the absorption spectrum of the enzyme confirms the importance of PLP. […] The peak at 420 nm, corresponding to a Schiff's base complex of PLP with an active site lysine, is abolished by treatment with AOAA (FIG. 5).

[2] = molecular target: T1, serine racemase; experiment: Inhibition of serine racemase by PLP inhibitors and sulfhydryl oxidation; PLP requirement; format: biochemical; details: for Effect on enzyme activity (PLP inhibitors): 37° C., pH 8.0, 20 mM L-serine, 2 mM DTT, 10 μM PLP, different concentrations (FIG. 4A)
Method: FIG. 4. inhibition of serine racemase by PLP inhibitors and sulfhydryl oxidation. FIG. 4A. Enzyme activity was monitored at 37° C. in a medium containing 50 mM Tris-HCl (pH 8.0), 20 mM L-serine, 40–100 μg/ml purified enzyme, 1 mM EDTA, 2 mM DTT, 10 μM pyridoxal 5′-phosphate and different concentrations of either aminooxyacetic acid (◯) or hydroxylamine (●). FIG. 4B. Reaction medium and conditions were as described in A, except that DTT was omitted from the last step of the enzyme preparation. The enzyme was preincubated for 10 minutes in the presence of different concentrations of oxidized glutathione (GSSG).
D-serine formation was monitored by a chemiluminescent assay that specifically detects D-serine. Racemase activity was performed in the presence of 50 mM Tris-HCl (pH 8.0), 18 μl enzyme extract, 1 mM EDTA, 2 mM DTT, 15 μM pyridoxal 5′-phosphate (PLP), and 20 mM L-serine. After 0.5 to 8 hours incubation at 37° C., the reaction was terminated by the addition of trichloroacetic acid (TCA) to a final concentration of 5%. Blanks employed boiled enzyme extract. The precipitated protein was removed by centrifugation, and the supernatant was extracted 2 times with 1 ml of water-saturated diethyl ether to remove TCA. D-serine concentration was determined by incubation of the samples with D-amino acid oxidase, which specifically degrades D-amino acids, generating an α-keto acid, NH3 and hydrogen peroxide (16).
The generation of hydrogen peroxide was quantitated by the use of peroxidase and luminol, which emits light. A 10 μl sample aliquot was added to 100 μl of medium containing 100 mM Tris-HCl (pH 8.8), 10 U/ml peroxidase, and 8 μM luminol. After a 10 to 20 minute delay required to decrease the nonspecific luminol luminescence, 10 μl of D-amino acid oxidase (75 U/ml) were added, and the tubes were gently mixed with a pipette tip. Maximum luminescence was recorded after 10 to 15 minutes at room temperature using a Monolight 2010 luminometer (Analytical Luminescence Laboratory). The amount of D-serine in each sample was calculated by comparison with standard curves. The measurements were reliable in the range of 50 to 2000 pmol D-serine per sample. […] Alternatively, amino acid enantiomers were separated by high performance liquid chromatography (HPLC) using a carbon 18 reverse phase column (RP18 Spheri-5, 22 cm×4.6 mm, Perkin Elmer) with fluorimetric detection after derivatization with L-Boc-cys and OPA, as described (17). The results obtained with chemiluminescent assay were identical to those obtained using HPLC. […]
We wondered whether conversion of L to D-serine might be a by-product of a different enzyme activity with non-enzymatic racemization giving rise to D-serine. Accordingly, we monitored by HPLC levels of L and D-serine at different incubation times (Table 2). […]

[3] = molecular target: NMDA receptor "glycine site" (Homo sapiens, UniProt Q05586); details: reference 14; cited from earlier work
[4] = molecular target: T1, serine racemase; experiment: Substrate specificity of serine racemase; format: biochemical; details: for Specific activity / % control: 20 mM L-amino acids; for Specific activity: 37° C., pH 8.0, 8 h, HPLC; for % control: activity relative to L-serine, 8 h; for Racemase activity with the amino acid: purified enzyme
Method: (§1) The generation of hydrogen peroxide was quantitated by the use of peroxidase and luminol, which emits light. A 10 μl sample aliquot was added to 100 μl of medium containing 100 mM Tris-HCl (pH 8.8), 10 U/ml peroxidase, and 8 μM luminol. After a 10 to 20 minute delay required to decrease the nonspecific luminol luminescence, 10 μl of D-amino acid oxidase (75 U/ml) were added, and the tubes were gently mixed with a pipette tip. Maximum luminescence was recorded after 10 to 15 minutes at room temperature using a Monolight 2010 luminometer (Analytical Luminescence Laboratory). The amount of D-serine in each sample was calculated by comparison with standard curves. The measurements were reliable in the range of 50 to 2000 pmol D-serine per sample. […] Alternatively, amino acid enantiomers were separated by high performance liquid chromatography (HPLC) using a carbon 18 reverse phase column (RP18 Spheri-5, 22 cm×4.6 mm, Perkin Elmer) with fluorimetric detection after derivatization with L-Boc-cys and OPA, as described (17). The results obtained with chemiluminescent assay were identical to those obtained using HPLC.
The presence of trace amounts of D-serine in the commercial L-serine reagent generates high blank values. Thus, the stock solution of L-serine (100 mM) was routinely pre-treated for 3 days with 30 units of D-amino acid oxidase and 500 units of catalase to remove any D-serine contaminant. The enzymes were precipitated by the addition of 5% TCA. After removal of TCA by extraction with diethyl ether, the L-serine solution was neutralized with NaOH and could be used without further purification, being virtually free of any D-serine contaminant. The same purification procedure was applied for L-alanine and L-threonine.
Additionally, we examined the purified enzyme for the presence of other enzyme activities which might indirectly contribute to D-serine formation. We found no evidence for serine: pyruvate aminotransferase activity, as L-serine levels were not altered in the presence of pyruvate. […] There is no evidence for serine dehydratase activity which would be associated with a marked decrease in L-serine levels.

[5] = molecular target: T1, serine racemase; experiment: Racemization of L-serine over time, L- and D-serine by HPLC; format: biochemical
Method: as §1
We wondered whether conversion of L to D-serine might be a by-product of a different enzyme activity with non-enzymatic racemization giving rise to D-serine. Accordingly, we monitored by HPLC levels of L and D-serine at different incubation times (Table 2). Increases in formation of D-serine are paralleled by stoichiometric decreases in levels of L-serine, making it unlikely that L-serine is converted to any other compound by the enzyme.

[6] = time 0, 4 mM L-serine, 40 μg/ml purified enzyme, 37° C.

Compound: N[C@H](CO)C(=O)O [D-serine]
Potency relative to glycine at the glycine site [3]: up to three times more potent than glycine

Compound: Cc1ncc(COP(=O)(O)O)c(C=O)c1O [PLP, pyridoxal 5′-phosphate]
Enzyme activity after dialysis without PLP, on addition of PLP ([2]; dialysis for 16 hours against 1,000 volumes of purification buffer without PLP): can be restored by the addition of PLP

Compound: NO [hydroxylamine]
Effect on enzyme activity (PLP inhibitors) [2]: inhibit enzyme activity

Compound: oxidized glutathione
Effect on enzyme activity (sulfhydryl oxidation) ([2]; DTT omitted, enzyme preincubated for 10 minutes with different concentrations (FIG. 4B)): markedly reduces enzyme activity

Next, values leading:

Absorption peak at 420 nm of the enzyme (Schiff's base complex of PLP) [1]: abolished
Effect on enzyme activity (PLP inhibitors) [2]: inhibit enzyme activity
Compound: NOCC(=O)O [Aminooxyacetic acid, aminooxyacetic acid]

Specific activity [4]: 0.012 µmol/mg/h
Compound: C[C@H](N)C(=O)O [L-alanine]

Specific activity [4]: 0 µmol/mg/h
% control [4]: 0%
Racemase activity with the amino acid [4]: no activity
Compound: N[C@@H](CC(=O)O)C(=O)O [L-aspartate]

Specific activity [4]: 4.8 µmol/mg/h
% control [4]: 100%
[D-sertne] [5, 6]: 0.0007 mM
[L-serine] [5, 6]: 4.00 mM
[D-sertne] ([5]; time 0.5 h): 0.042 mM
[L-serine] ([5]; time 0.5 h): 3.96 mM
[D-sertne] ([5]; time 1 h): 0.101 mM
[L-serine] ([5]; time 1 h): 3.93 mM
[D-sertne] ([5]; time 4 h): 0.342 mM
[L-serine] ([5]; time 4 h): 3.65 mM
Compound: N[C@@H](CO)C(=O)O [L-serine]

Specific activity [4]: 0 µmol/mg/h
Racemase activity with the amino acid [4]: no activity
Compound: C[C@@H](O)[C@H](N)C(=O)O [L-threonine]

From patent US6984484B1, “Mammalian serine racemase” (The Johns Hopkins University, priority 1999, dated 2006)
